From US20060049177A1, “Induction heating cooker” (LG Electronics Inc., priority 2004, published 2006)
Read-outs that look alike come from different tables or passages of the source.

Key:
HIV-1 = experiment: in vitro anti-HIV assay: inhibition of HIV-induced cytopathic effect in MT-4 cells (MTT); assay type: cell-based; conditions: for SI: selectivity index = ratio of CC50 to IC50
Experimental: (§1) A rapid, sensitive and automated assay procedure was used for the in vitro evaluation of anti-HIV agents. An […] T4-cell line, MT-4, which was previously shown (Koyanagi et al., Int. J. Cancer, 36, 445-451, 1985) to be highly susceptible to and permissive for HIV infection, served as the target cell line. Inhibition of the HIV-induced cytopathic effect was used as the end point. The viability of both HIV- and mock-infected cells was assessed spectrophotometrically via the in situ reduction of 3-(4,5-dimethylthiazol-2-yl)-2,5-diphenyltetrazolium bromide (MTT). The 50% […], cytotoxic concentration (CC50 in μM) was defined as the concentration of compound that reduced the absorbance of the mock-infected control sample by 50%. The percent protection achieved by the compound in HIV-infected cells was calculated by the following formula: [formula]
(§2) whereby (ODT)HIV is the optical density measured with a given concentration of the test compound in HIV-infected cells; (ODC)HIV is the optical density measured for the control untreated HIV-infected cells; (ODC)MOCK is the optical density measured for the control untreated mock-infected cells; all optical density values were determined at 540 nm. The dose achieving 50% protection according to the above formula was defined as the 50% inhibitory concentration (IC50 in μM). The ratio of CC50 to IC50 was defined as the selectivity index (SI).

MT-4 cells = experiment: cytotoxicity in mock-infected MT-4 cells (MTT)
Experimental: as §1, §2

[1] = Human immunodeficiency virus 1, MT4, HIV-infected MT-4 cells, dose achieving 50% protection against cytopathic effect, MTT, OD 540 nm, mean value, read-out: IC50
[2] = HIV-infected MT-4 cells, dose achieving 50% protection against cytopathic effect, MTT, OD 540 nm, mean value, read-out: IC50

Compound | IC50 (HIV-1; [1]) [nM] | SI (HIV-1) | CC50 (MT-4 cells) [nM] | IC50 (HIV-1; [2]) [nM] | IC50 (HIV-1; Human immunodeficiency virus 1, MT4) [nM]
N#Cc1ccc(Nc2nc(N)nc(Cc3c(Cl)cccc3Cl)n2)cc1 [Compound 1, 4-[[4-amino-6-[(2,6-dichlorophenyl)methyl]-1,3,5-triazin-2-yl]amino]benzonitrile] | 2 | >42553 | – | – | –
N#Cc1ccc(Nc2nc(N)nc(Cc3ccccc3)n2)cc1 [Compound 2] | – | >350 | > 100000 | 290 | –
N#Cc1ccc(Nc2nc(N)nc(Cc3ccccc3Cl)n2)cc1 [Compound 3] | – | 3972 | 51600 | 13 | –
N#Cc1cccc(Nc2nc(N)nc(Cc3c(Cl)cccc3Cl)n2)c1 [Compound 4] | – | 224 | 53600 | 240 | –
Nc1nc(Cc2c(Cl)cccc2Cl)nc(Nc2ccc(Cl)cc2)n1 [Compound 5] | – | 2793 | 47500 | 17 | –
N#Cc1ccc(Nc2nc(N)nc(Cc3c(Cl)ccc4[nH]ccc34)n2)cc1 [Compound 8, 4-[[4-amino-6-[(5-chloro-1H-indol-4-yl)methyl]-1,3,5-triazin-2-yl]amino]benzonitrile] | – | 4806 | – | – | 300
CN(C)c1nc(Cc2c(Cl)cccc2Cl)nc(Nc2ccc(C#N)cc2)n1 [Compound 10] | – | >602 | > 100000 | 170 | –
N#Cc1ccc(Nc2nc(Cc3c(Cl)cccc3Cl)nc(Nc3ccc(C#N)cc3)n2)cc1 [Compound 11, N,N′-[6-[(2,6-dichlorophenyl)methyl]1,3,5-triazin-2,4-diyl]bis[4-aminobenzonitrile]] | – | <1 | 6000 | > 10400 | –
CCN(CC)c1nc(Cc2c(Cl)cccc2Cl)nc(Nc2ccc(C#N)cc2)n1 [Compound 12] | – | >2 | > 20000 | 8100 | –
COC(=O)CNc1nc(Cc2c(Cl)cccc2Cl)nc(Nc2ccc(C#N)cc2)n1 [Compound 13] | – | >178 | > 20000 | 110 | –
N#Cc1ccc(Nc2nc(Cc3c(Cl)cccc3Cl)nc(NCC(N)=O)n2)cc1 [Compound 14, [N-[4-[(4-cyano-phenyl)amino]-6-[(2,6-dichlorophenyl)methyl]-1,3,5-triazin-2-yl]]aminoacetamide] | 31 | 293 | – | – | –
N#Cc1ccc(Nc2nc(Cc3c(Cl)cccc3Cl)nc(NN)n2)cc1 [Compound 15, 4-[[4-[(2,6-dichlorophenyl)methyl]-6-hydrazino-1,3,5-triazin-2yl]amino]benzonitrile] | 61 | 732 | – | – | –
N#Cc1ccc(Nc2nc(Cc3c(Cl)cccc3Cl)nc(NCC(=O)O)n2)cc1 [Compound 16, N-[4-[(4-cyanophenyl)-amino]-6-[(2,6-dichlorophenyl)methyl]-1,3,5-triazin-2-yl]glycine] | 2800 | 28 | – | – | –
CCOC(=O)CC[C@H](Nc1nc(Cc2c(Cl)cccc2Cl)nc(Nc2ccc(C#N)cc2)n1)C(=O)OCC [Compound 17] | – | >4 | > 20000 | 4300 | –
N#Cc1ccc(Nc2nc(Cc3c(Cl)cccc3Cl)nc(NCCO)n2)cc1 [Compound 18] | – | >2030 | > 20000 | 1 | –
N#Cc1ccc(Nc2nc(Cc3c(Cl)cccc3Cl)nc(NCCN)n2)cc1 [Compound 19] | – | 810 | 10400 | 13 | –
N#Cc1ccc(Nc2nc(Cc3c(Cl)cccc3Cl)nc(NC(=N)N)n2)cc1 [Compound 20, N-[4-[(4-cyanophenyl)amino]-6-[(2,6-dichlorophenyl)methyl]-1,3,5-triazin-2-yl]-guanidine] | > 100000 | <1 | – | – | –
Cl.N#Cc1ccc(Nc2nc(Cc3c(Cl)cccc3Cl)nc(NO)n2)cc1.O [Compound 21, 4-[[4-[(2,6-dichlorophenyl)methyl]-6-(hydroxyamino)-1,3,5-triazin-2-yl]amino]benzonitrile monohydrochloride.monohydrate] | – | 4924 | 8900 | 2 | –

Compound | IC50 (HIV-1; [1]) [nM] | SI (HIV-1) | CC50 (MT-4 cells) [nM] | IC50 (HIV-1; [2]) [nM] | IC50 (HIV-1; Human immunodeficiency virus 1, MT4) [nM]
CC(=O)Nc1nc(Cc2c(Cl)cccc2Cl)nc(Nc2ccc(C#N)cc2)n1 [Compound 22, N-[4-[(4-cyanophenyl)amino]-6-[(2,6-dichlorophenyl)methyl)-1,3,5-triazin-2-yl]-acetamide] | 14 | >6993 | – | – | –
N#Cc1ccc(Nc2nc(Cc3c(Cl)cccc3Cl)nc(NCCCNC(N)=O)n2)cc1 [Compound 23, N-[3-[[4-[(4-cyanophenyl)amino]-6-[(2,6-dichlorophenyl)methyl]-1,3,5-triazin-2-yl]amino]propyl]urea] | 340 | 106 | – | – | –
N#Cc1ccc(Nc2nc(Cc3c(Cl)cccc3Cl)nc(NCCCCO)n2)cc1 [Compound 24] | – | 529 | 36100 | 68 | –
N#Cc1ccc(Nc2nc(Cc3c(Cl)cccc3Cl)nc(NCCCO)n2)cc1 [Compound 25] | – | 1773 | 51600 | 29 | –
N#Cc1ccc(Nc2nc(Cc3c(Cl)cccc3Cl)nc(NCC(O)CO)n2)cc1 (centres unmarked) [Compound 26, (O)-4-[[4-[(2,6-dichlorophenyl)methyl]-6-[(2,3-dihydroxypropyl)amino]-1,3,5-triazin-2-yl]amino]benzonitrile] | – | 883 | 59700 | 68 | –
N#Cc1ccc(Nc2nc(Cc3c(Cl)cccc3Cl)nc(NCCOCCO)n2)cc1 [Compound 27] | – | 837 | 46800 | 56 | –
CN(C)CCNc1nc(Cc2c(Cl)cccc2Cl)nc(Nc2ccc(C#N)cc2)n1 [Compound 29] | – | 1741 | 8700 | 5 | –
N#Cc1ccc(Nc2nc(Cc3c(Cl)cccc3Cl)nc(NCCCN)n2)cc1 [Compound 30] | – | 416 | 16500 | 40 | –
CN(C)CCCNc1nc(Cc2c(Cl)cccc2Cl)nc(Nc2ccc(C#N)cc2)n1 [Compound 31] | – | 506 | 9600 | 19 | –
N#Cc1ccc(Nc2nc(Cc3c(Cl)cccc3Cl)nc(NC3CCOC3=O)n2)cc1 (centres unmarked) [Compound 32] | – | 42 | 83400 | 2000 | –
N#Cc1ccc(Nc2nc(Cc3c(Cl)cccc3Cl)nc(NO)n2)cc1 [Compound 33, 4-[[4-[(2,6-dichlorophenyl)methyl]-6-(hydroxyamino)-1,3,5-triazin-2-yl]amino]benzonitrile] | 2 | 6272 | – | – | –
N#Cc1ccc(Nc2nc(Cc3c(Cl)cccc3Cl)nc(NCCc3cccs3)n2)cc1 [Compound 35] | – | 75 | 53000 | 700 | –
CONc1nc(Cc2c(Cl)cccc2Cl)nc(Nc2ccc(C#N)cc2)n1 [Compound 36] | – | 8097 | 40900 | 5 | –
CCOC(=O)Nc1nc(Cc2c(Cl)cccc2Cl)nc(Nc2ccc(C#N)cc2)n1 [Compound 37] | – | 7948 | 85000 | 11 | –
CN(C)c1nc(Cc2c(Cl)cccc2Cl)nc(N(c2ccc(C#N)cc2)c2ccc(C#N)cc2)n1 [Compound 38, 4,4′-[[4-[(2,6-dichlorophenyl)methyl]-6-(dimethylamino)-1,3,5-triazin-2-yl]imino]bisbenzonitrile] | > 100000 | – | – | – | –
CC(=O)Nc1nc(Cc2c(Cl)cccc2Cl)nc(N(C(C)=O)c2ccc(C#N)cc2)n1 [Compound 40] | – | >41666 | > 100000 | 2 | –
N#Cc1ccc(Nc2nc(N)nc(Cc3c(F)ccc(F)c3F)n2)cc1 [Compound 52] | – | >220 | – | 3 | –
CN(C)C=Nc1nc(Cc2c(Cl)cccc2Cl)nc(Nc2ccc(C#N)cc2)n1 [Compound 62, 4-[[4-[(2,6-dichlorophenyl)methyl]-6-[[(dimethylamino)methylene]amino]-1,3,5-triazin-2-yl]amino]benzonitrile] | 2 | >41666 | – | – | –
